Data set [1] concerns the target T1, full-length beta-catenin (Axin site) (Homo sapiens, UniProt P35222).
T1 construct: 15 nM full-length beta-catenin, 20 nM FITC labeled peptide in buffer
T1 sequence (P35222 1-781): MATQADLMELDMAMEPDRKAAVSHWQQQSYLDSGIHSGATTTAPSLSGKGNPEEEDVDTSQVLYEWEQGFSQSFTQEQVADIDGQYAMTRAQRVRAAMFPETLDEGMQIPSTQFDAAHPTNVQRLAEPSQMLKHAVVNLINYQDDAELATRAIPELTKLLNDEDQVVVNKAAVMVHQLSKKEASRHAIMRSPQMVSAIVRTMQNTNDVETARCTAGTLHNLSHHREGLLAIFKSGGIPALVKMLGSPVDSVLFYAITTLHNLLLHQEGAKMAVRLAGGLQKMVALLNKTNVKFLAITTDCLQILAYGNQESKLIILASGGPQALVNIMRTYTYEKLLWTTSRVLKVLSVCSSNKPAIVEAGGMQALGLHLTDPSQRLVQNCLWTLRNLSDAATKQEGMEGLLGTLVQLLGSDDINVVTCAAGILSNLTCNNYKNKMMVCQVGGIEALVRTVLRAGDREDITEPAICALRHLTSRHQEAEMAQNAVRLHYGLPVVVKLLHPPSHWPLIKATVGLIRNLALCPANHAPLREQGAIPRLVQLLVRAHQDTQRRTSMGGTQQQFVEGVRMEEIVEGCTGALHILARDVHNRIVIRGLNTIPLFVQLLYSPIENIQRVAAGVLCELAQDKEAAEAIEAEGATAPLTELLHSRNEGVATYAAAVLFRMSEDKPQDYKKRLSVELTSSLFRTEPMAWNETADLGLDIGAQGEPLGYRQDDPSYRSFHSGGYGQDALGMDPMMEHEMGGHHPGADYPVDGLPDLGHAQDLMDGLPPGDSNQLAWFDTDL
As to the kind of experiment: Competition fluorescence polarization assay (Axin site probe). The data set is classed as binding. An outline of the steps:
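Competition FP: 15 nM full-length β-catenin pre-incubated 5 min with 20 nM FITC-labelled stapled Axin-site peptide, then titrated peptide added (3-fold series from 5 μM) for 15 min in the dark. Buffer 50 mM Tris pH 8.0, 250 mM NaCl, 2% glycerol, 0.5 mM EDTA; duplicate reads.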
On the technique in general: Fluorescence polarisation rises when a labelled molecule tumbles more slowly, as on binding a larger partner.

Data set [2] addresses T2, biotinylated beta-catenin (Homo sapiens, UniProt P35222).
T2 sequence (P35222 1-781): T1 sequence (P35222 1-781)
Description: Surface Plasmon Resonance (Biacore). It counts as binding. The protocol:
Additionally or alternatively, binding to beta-catenin may be measured by Surface Plasmon Resonance. In an exemplary assay, approximately 6 nmol dried peptide diluted in buffer (50 mM Tris pH 8.0, 300 mM NaCl, 2% glycerol, 0.5 mM TCEP, 0.5 mM EDTA, 0.005% Tween-20, 1 mg/mL CM Dextran, 0.02% w/v sodium azide) was assayed on a Biacore X100 using the Biacore Biotin CAPture Kit (GE Healthcare) and biotinylated beta-catenin. Results were analyzed using the Biacore X100 Evaluation Software. […] FPO217c (Isomer 2) bound to the armadillo domain of β-catenin with a Kd of 2 nM.
A general note: In SPR one partner is held on a chip, and binding of the other changes the refractive index at the surface.

The nature of data set [3]: Solubility in DPBS (A280 of supernatant). Particulars: DPBS. It counts as physicochemical. In a few lines:
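Dried peptide reconstituted in DPBS in triplicate, vortexed, sonicated and centrifuged. Supernatant A280 measured; concentration calculated using the tryptophan extinction coefficient.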

Where [4] appears, read: competition fluorescence polarization, Table 2, read-out: in vitro FP EC50.
[5] abbreviates: competition with FITC labeled Axin-site probe, 15 nM full-length beta-catenin, read-out: FP EC50.
Where [6] appears, read: Biacore, biotinylated beta-catenin, read-out: Kd.

Converted amounts (≈) assume the structure as drawn. Like-named read-outs stand apart in the source and are kept apart here.

In the case of `CC[C@H](C)[C@@H]1NC(=O)C2(NC(=O)[C@H](CCC(N)=O)NC(=O)[C@@H]3CCCN3C(C)=O)CN(C2)C(=O)OCC=CCCCC[C@](C)(C(=O)N[C@@H](Cc2c[nH]cn2)C(=O)N[C@H](C(=O)N[C@@H](CCCNC(=N)N)C(=O)N[C@@H](CCCNC(=N)N)C(=O)N[C@H](C(=O)N[C@@H](Cc2c[nH]c3ccccc23)C(=O)N[C@@H](CCCNC(=N)N)C(N)=O)C(C)C)C(C)C)NC(=O)[C@H](CC(=O)O)NC(=O)[C@H](CC(C)C)NC1=O` (single isomer, unassigned) [FP0725c, Ac-P-Q-MA-I-L-D-R6-H-V-R-R-V-W-R-NH2], in data set [1] (setting [4]), the EC50 (in general, the concentration giving half of the maximal effect) was under 100 nM. For the same compound, in data set [2] (Table 2, read-out: Kd by SPR), the Kd (usually the constant that tells how readily two partners part at equilibrium) stood at 22 nM.

As for `CC[C@H](C)[C@@H]1NC(=O)[C@@](C)(NC(=O)[C@H](CCC(N)=O)NC(=O)[C@@H]2CCCN2C(C)=O)CCCCCC=CCN2CC(C(=O)N[C@@H](Cc3c[nH]cn3)C(=O)N[C@H](C(=O)N[C@@H](CCCNC(=N)N)C(=O)N[C@@H](CCCNC(=N)N)C(=O)N[C@H](C(=O)N[C@@H](Cc3c[nH]c4ccccc34)C(=O)N[C@@H](CCCNC(=N)N)C(N)=O)C(C)C)C(C)C)(C2)NC(=O)[C@H](CC(=O)O)NC(=O)[C@H](CC(C)C)NC1=O` (single isomer, unassigned) [FP0738a, Ac-P-Q-S7-I-L-D-MA-H-V-R-R-V-W-R-NH2], the concentration for a half-maximal effect (EC50) in data set [1] (setting [4]) was in the range of 100 to 500 nM. In data set [2] (Table 2, read-out: Kd by SPR), the dissociation constant (Kd) is 43 nM.

For the compound `CC[C@H](C)[C@@H]1NC(=O)[C@@]2(NC(=O)[C@H](CCC(N)=O)NC(=O)[C@@H]3CCCN3C(C)=O)CCN(CC=CCCCC[C@](C)(C(=O)N[C@@H](Cc3c[nH]cn3)C(=O)N[C@H](C(=O)N[C@@H](CCCNC(=N)N)C(=O)N[C@@H](CCCNC(=N)N)C(=O)N[C@H](C(=O)N[C@@H](Cc3c[nH]c4ccccc34)C(=O)N[C@@H](CCCNC(=N)N)C(N)=O)C(C)C)C(C)C)NC(=O)[C@H](CC(=O)O)NC(=O)[C@H](CC(C)C)NC1=O)C2` (single isomer, unassigned) [FP0745a, Ac-P-Q-MC-I-L-D-R6-H-V-R-R-V-W-R-NH2], the EC50 in data set [1] (setting [4]) was 100 to 500 nM. For the same compound, the dissociation constant (Kd) in data set [2] (Table 2, read-out: Kd by SPR) is 34 nM.

On to `CC[C@H](C)[C@@H]1NC(=O)[C@](C)(NC(=O)[C@H](CCC(N)=O)NC(=O)[C@@H]2CCCN2C(C)=O)CCC=CCOC(=O)N2CC[C@](C(=O)N[C@@H](Cc3c[nH]cn3)C(=O)N[C@H](C(=O)N[C@@H](CCCNC(=N)N)C(=O)N[C@@H](CCCNC(=N)N)C(=O)N[C@H](C(=O)N[C@@H](Cc3c[nH]c4ccccc34)C(=O)N[C@@H](CCCNC(=N)N)C(N)=O)C(C)C)C(C)C)(C2)NC(=O)[C@H](CC(=O)O)NC(=O)[C@H](CC(C)C)NC1=O` (single isomer, unassigned) [FP0765c, Ac-P-Q-R4-I-L-D-MC-H-V-R-R-V-W-R-NH2], for which the EC50 in data set [1] (setting [4]) was under 100 nM. Moreover, the Kd in data set [2] (Table 2, read-out: Kd by SPR) amounted to 13 nM.

Turning to `CC[C@H](C)[C@@H]1NC(=O)[C@](C)(NC(=O)[C@H](CCC(N)=O)NC(=O)[C@@H]2CCCN2C(C)=O)CCCC=CCOC(=O)N2CC[C@](C(=O)N[C@@H](Cc3c[nH]cn3)C(=O)N[C@H](C(=O)N[C@@H](CCCNC(=N)N)C(=O)N[C@@H](CCCNC(=N)N)C(=O)N[C@H](C(=O)N[C@@H](Cc3c[nH]c4ccccc34)C(=O)N[C@@H](CCCNC(=N)N)C(N)=O)C(C)C)C(C)C)(C2)NC(=O)[C@H](CC(=O)O)NC(=O)[C@H](CC(C)C)NC1=O` (single isomer, unassigned) [FP0766c, Ac-P-Q-R5-I-L-D-MC-H-V-R-R-V-W-R-NH2], the EC50 in data set [1] (setting [4]) was under 100 nM. Further, the Kd in data set [2] (Table 2, read-out: Kd by SPR) came to 7 nM.

Turning to `CC[C@H](C)[C@@H]1NC(=O)[C@@](C)(NC(=O)[C@H](CCC(N)=O)NC(=O)[C@@H]2CCCN2C(C)=O)CCCCCC=CCN2CC(C(=O)N[C@@H](Cc3c[nH]cn3)C(=O)N[C@H](C(=O)N[C@@H](CCCNC(=N)N)C(=O)N[C@@H](CCCNC(=N)N)C(=O)N[C@H](C(=O)N[C@@H](Cc3c[nH]c4ccccc34)C(=O)N[C@@H](CCCNC(=N)N)C(N)=O)C(C)C)C(C)C)(C2)NC(=O)[C@H](CC(=O)O)NC(=O)[C@H](CC(C)C)NC1=O` (single isomer, unassigned) [FP-0738a], in data set [1] (setting [5]), the EC50 came out at 200 nM. In data set [2] (setting [6]), the dissociation constant Kd is about 43 nM.

As to `CC[C@H](C)[C@@H]1NC(=O)[C@](C)(NC(=O)[C@H](C)NC(=O)[C@@H]2CCCN2C(C)=O)CCCCCCC=CCOC(=O)N2CC[C@@](C(=O)N[C@@H](CCCNC(=N)N)C(=O)N[C@H](C(=O)N[C@@H](Cc3c[nH]c4ccccc34)C(N)=O)C(C)C)(C2)NC(=O)[C@H](C(C)C)NC(=O)[C@H](Cc2c[nH]cn2)NC(=O)[C@H](C)NC(=O)[C@H](CC(=O)O)NC(=O)[C@H](CC(C)C)NC1=O` [FP0025c, Ac-P-A-R8-I-L-D-A-H-V-MB-R-V-W-NH2], the EC50 in data set [1] (setting [4]) and in data set [1] (setting [5]) was under 100 nM in each case. For the same compound, in data set [2] (setting [6]), the dissociation constant Kd was determined as 15 nM.

For `CC[C@H](C)[C@@H]1NC(=O)[C@H](Cc2c[nH]cn2)NC(=O)[C@H](C)NC(=O)[C@H](CC(=O)O)NC(=O)[C@H](CC(C)C)NC(=O)[C@H]([C@@H](C)CC)NC(=O)[C@](C)(NC(=O)[C@H](C)NC(C)=O)CCCCCCC=CCOC(=O)N(C)C[C@@](C)(C(=O)N[C@@H](CCCNC(=N)N)C(=O)N[C@H](C(=O)N[C@@H](Cc2c[nH]c3ccccc23)C(N)=O)C(C)C)NC1=O` [FP0338c, Ac-A-R8-I-L-D-A-H-I-MD-R-V-W-NH2], the EC50 in data set [1] (setting [4]) was 100 to 500 nM. For the same compound, in data set [2] (Table 2, read-out: Kd by SPR), the dissociation constant (Kd) amounted to 3 nM.

On to `CC[C@H](C)[C@@H]1NC(=O)[C@H](Cc2c[nH]cn2)NC(=O)[C@H](C)NC(=O)[C@H](CC(=O)O)NC(=O)[C@H](CC(C)C)NC(=O)[C@H]([C@@H](C)CC)NC(=O)[C@](C)(NC(=O)[C@H](C)NC(C)=O)CCC=CCOC(=O)N(C)CCC[C@@](C)(C(=O)N[C@@H](CCCNC(=N)N)C(=O)N[C@H](C(=O)N[C@@H](Cc2c[nH]c3ccccc23)C(N)=O)C(C)C)NC1=O` [FP0509c, Ac-A-R4-I-L-D-A-H-I-MH-R-V-W-NH2], for which, in data set [1] (setting [4]), the half-maximal effective concentration (EC50) was under 100 nM. The dissociation constant (Kd) in data set [2] (Table 2, read-out: Kd by SPR) worked out at 3 nM; in data set [2] (Table 3 Part A, read-out: Binding Kd), 3 nM. Further, the solubility (in general, the dissolved amount per volume that the medium holds) in data set [3] (Table 2, read-out: Solubility) amounted to 32 µM (≈ 49.9 µg/mL); in data set [3] (Table 3 Part A, read-out: Solubility in DPBS), 42 µM (≈ 65.4 µg/mL).

For `CC[C@H](C)[C@@H]1NC(=O)[C@@](C)(NC(=O)[C@H](CCC(N)=O)NC(=O)[C@@H]2CCCN2C(C)=O)CCCC=CCCC[C@@](C)(C(=O)N[C@@H](Cc2c[nH]cn2)C(=O)N[C@H](C(=O)N[C@@H](CCCNC(=N)N)C(=O)N[C@@H](CCCNC(=N)N)C(=O)N[C@H](C(=O)N[C@@H](Cc2c[nH]c3ccccc23)C(=O)N[C@@H](CCCNC(=N)N)C(N)=O)C(C)C)C(C)C)NC(=O)[C@H](CC(=O)O)NC(=O)[C@H](CC(C)C)NC1=O` [FP0787s, Ac-P-Q-S5-I-L-D-S5-H-V-R-R-V-W-R-NH2], the 50% effective concentration (EC50) in data set [1] (setting [4]) lay in the range of 100 to 500 nM. Besides, the Kd in data set [2] (Table 2, read-out: Kd by SPR) was 14 nM.

The values above are taken from US11198713B2, “Agents modulating beta-catenin functions and methods thereof” (FOG PHARMACEUTICALS, INC., priority 2017, dated 2021).
